According to US10849867B2, “Methods and compositions for treating conditions associated with an abnormal inflammatory response” (First Wave Bio, Inc., priority 2015, dated 2020):

Experiments:
Jurkat T cells = test: Mitochondrial transmembrane potential (ΔΨm) in Jurkat T cells, TMRM flow cytometry with oligomycin (Example 1); type: cell-based; conditions: relative to negative controls
Excerpt: Objective. […] Model. The Jurkat T cell model is commonly used to study the potential effects of compounds on T cells in vitro. This cell line allows investigation of stimuli and mechanisms that regulate T cell mitochondrial function and survival. As T cells, Jurkats have a lymphocyte appearance and replicate in culture in suspension. They contain respiring mitochondria and as such response to mitochondrial uncouplers such as niclosamide may be assessed. Uncoupling is identified and quantified by a detecting a drop in the electrochemical gradient across the mitochondrial inner membrane (ΔΨm) that is not associated with a corresponding increase in oxidative phosphorylation. […] Cell culture. Jurkat T cells were purchased from the American Type Culture Collection (Manassas, Va.) and sub-cultured according to instructions from the supplier. Prior to experiments, cells were cultured in RPMI 1640 containing 10% FBS-HI, 50 units penicillin/mL and 50 μg streptomycin/mL, and maintained in log phase prior to experimental setup. […] TMRM has been described as one of the best fluorescent dyes for dynamic and in situ quantitative measurements because it is rapidly and reversibly taken up by live cells and mitochondria. […] Ratios of the fluorescence intensity of each treated sample to the control sample mean were then calculated as a measure of relative decrease in ΔΨm. […]

human LPMCs T cells = test: ΔΨm in T cells isolated from human intestine lamina propria (LPMC), TMRM with oligomycin (Example 2); type: cell-based
Excerpt: Objective. […] Model. Lamina propria mononuclear cells (LPMC) in the human intestine are comprised in part by T cells, which mediate physiological and pathological processes including inflammatory bowel disease. LPMCs can be isolated from human tissue biopsies. After isolation […] cells remain viable ex vivo under appropriate culture conditions for periods of time that allow ex vivo experiments. These cells can be used to investigate mechanisms that regulate their mitochondrial function and survival. They contain respiring mitochondria and as such their response to mitochondrial uncouplers such as niclosamide may be assessed. This cellular model is used in conjunction with oligomycin that blocks oxidative phosphorylation and TMRM to monitor ΔΨm as described in Example 1. Cell isolation and culture. Cells are obtained from biopsy specimens of the small or large intestine or rectum of humans from areas of normal gastrointestinal tissue or with moderate to severe Crohn's disease (CD), ulcerative colitis (UC), or celiac disease. For the isolation of lamina propria mononuclear […] specimens are initially washed in Hank's balanced salt solution (HBSS) then are cut into 0.5-cm pieces, and are incubated with stirring in pre-warmed HBSS containing 1 mM DTT at 37° C. for 15 minutes. […] The isolated cells are counted and checked for viability using 0.1% trypan blue (viability ranges from 86% to 94%). […] In addition, anti-CD3 monoclonal antibody conjugated to FITC (excitation at 494 nm with emission detected at 521 nm) is additionally added during incubation with TMRM at 37° C. for 30 minutes. […] LPMC T cells are first defined by their fluorescence emission at 521 nm resulting from labeling with FITC-anti-CD3 antibody. The n fluorescence intensity of TMRM detected at 590 nm in the T cell population is measured. Median fluorescence intensity of the TMRM signal are computed. Ratios of the median fluorescence intensity of each treated sample to the control sample mean are then calculated as a measure of relative decrease in ΔΨm. […]

[1] = tested on: lamina propria T cell (CD3+); test: Cell death in lamina propria T cell from active IBD, 7-AAD staining (FIG. 1); type: cell-based, human; conditions: 10 μM for 16 hours, LPMC from IBD subjects, versus DMSO
Protocol: Cell death in lamina propria T cell (CD3+) was determined by measuring 7-AAD staining by flow cytometry. FIG. 1. […] Cell death in lamina propria T cell (CD3+) was determined by measuring 7-AAD staining by flow cytometry.

## O=C(Nc1ccc([N+](=O)[O-])cc1Cl)c1cc(Cl)ccc1O [Niclosamide, 5-chloro-N-(2-chloro-4-nitrophenyl)-2-hydroxybenzamide]
Jurkat T cells; 1-500 μM, 60 minutes, oligomycin present, TMRM
  change in ΔΨm in Jurkat cells: dose-related decrease
Jurkat T cells; Jurkat cells
  concentrations of niclosamide that significantly decreased ΔΨm (p<0.05): ≥ 5 µM
Human LPMCs T cells; TMRM, oligomycin, relative to negative controls
  change in ΔΨm in human LPMCs T cells: dose-related decrease
Human LPMCs T cells; human LPMCs T cells, relative to negative controls
  concentrations of niclosamide that decrease ΔΨm (p<0.05): ≥ 5 µM
Human LPMCs T cells; niclosamide 5 μM
  mitochondrial uncoupling in lamina propria T cell: more than 50%
[1]
  cell death in lamina propria T cell (CD3+): induces cell death
